Measurements reported in patent US20230159511A1, “TETRAHYDROISOQUINOLINE COMPOUNDS AS NRF2 ACTIVATORS” (C4X Discovery Limited, priority 2020, published 2023).

molecular target: T1, human KEAP1 (N-term, residues 321-609) (Homo sapiens, UniProt Q14145); test: KEAP1 Kelch Fluorescence Polarization (FP) Assay; type: binding; settings: inhibition of Kelch domain-NRF2 interaction; 2 nM FITC-labelled NRF2 peptide, 25 nM KEAP1, 1 h room temperature; compounds below 10 nM cannot be differentiated
T1 construct: human KEAP1 (N-term, residues 321-609)
T1 sequence (Q14145 321-609): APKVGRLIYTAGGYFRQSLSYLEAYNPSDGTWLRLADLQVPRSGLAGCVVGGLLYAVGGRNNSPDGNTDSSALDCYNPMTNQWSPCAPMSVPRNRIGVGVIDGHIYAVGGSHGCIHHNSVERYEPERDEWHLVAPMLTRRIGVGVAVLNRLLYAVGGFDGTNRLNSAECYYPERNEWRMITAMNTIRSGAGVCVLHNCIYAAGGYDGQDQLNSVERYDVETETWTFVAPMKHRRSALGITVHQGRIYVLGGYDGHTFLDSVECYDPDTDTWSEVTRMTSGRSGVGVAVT
Method: KEAP1 Kelch Fluorescence Polarization (FP) Assay Method
Inhibition of the Kelch domain-NRF2 interaction was determined using a fluorescence polarization-based competition assay in a black 384-well microplate. Compounds were tested at a starting concentration of 10 μM serially diluted 1:3 to generate a 12-point dose response curve on the Biomek FX robot. Each well contained 2 nM FITC-labelled NRF2 peptide (FITC-LDEETGEFL-NH2) and 25 nM human KEAP1 (N-term, residues 321-609) enzyme in a final volume of 20 μL of assay buffer (50 mM Tris-HCl pH 8.0, 100 mM NaCl, 5 mM MgCl2, 0.005% Tween-20, 0.005% BSA, 0.5% DMSO) in the presence of varying concentrations of test compound. Unlabelled peptide (LDEETGEFL-NH2) at 50 μM (negative control) and 0.5% DMSO (positive control) was used to determine the assay window.
After 1 h at room temperature, fluorescence polarization (excitation 470 nm/emission 530 nm) was measured using an Envision plate reader. IC50 values were determined by fitting the data to a four parameter logistic fit using XLfit or XE Runner within ActivityBase. The assay limit is such that compounds below 10 nM cannot be differentiated.

IC50 [nM]	Compound
1510	N#CCNC(=O)[C@H]1CCCC[C@H]1C(=O)N1CCc2cccc(O[C@H]3CCN(C(=O)c4cncs4)C3)c2[C@H]1CN1C(=O)c2ccccc2C1=O [Example 33, (1S,2R)-N-(cyanomethyl)-2-((S)-1-((1,3-dioxoisoindolin-2-yl)methyl)-8-(((S)-1-(thiazole-5-carbonyl)pyrrolidin-3-yl)oxy)-1,2,3,4-tetrahydroisoquinoline-2-carbonyl)cyclohexane-1-carboxamide]
1800	CNC(=O)[C@H]1CCCC[C@H]1C(=O)N1CCc2cccc(OCc3cnn(C)c3)c2[C@H]1CN1C(=O)c2ccccc2C1=O [Example 49, (1S,2R)-2-((S)-1-((1,3-dioxoisoindolin-2-yl)methyl)-8-((1-methyl-1H-pyrazol-4-yl)methoxy)-1,2,3,4-tetrahydroisoquinoline-2-carbonyl)-N-methylcyclohexane-1-carboxamide]
161	CNC(=O)[C@H]1CCCC[C@H]1C(=O)N1CCc2cccc(OCCNC(=O)c3noc(C)c3C)c2[C@H]1CN1C(=O)c2ccccc2C1=O [Example 4, N-(2-(((S)-1-((1,3-dioxoisoindolin-2-yl)methyl)-2-((1R,2S)-2-(methylcarbamoyl)cyclo-hexane-1-carbonyl)-1,2,3,4-tetrahydroisoquinolin-8-yl)oxy)ethyl)-4,5-dimethylisoxazole-3-carboxamide]
5330	CCC(=O)NC[C@@H]1c2c(cccc2O[C@H]2CCN(C(=O)c3cncs3)C2)CCN1C(=O)[C@@H]1CCCC[C@@H]1C(=O)NC [Example 47, (1S,2R)-N-methyl-2-((S)-1-(propionamidomethyl)-8-(((S)-1-(thiazole-5-carbonyl)pyrrolidin-3-yl)oxy)-1,2,3,4-tetrahydroisoquinoline-2-carbonyl)cyclohexane-1-carboxamide]
788	CNC(=O)CCC(=O)N1CCc2cccc(O[C@H]3CCN(C(=O)c4cncs4)C3)c2[C@H]1CN1C(=O)c2ccccc2C1=O [Example 41, 4-((S)-1-((1,3-dioxoisoindolin-2-yl)methyl)-8-(((S)-1-(thiazole-5-carbonyl)pyrrolidin-3-yl)oxy)-3,4-dihydroisoquinolin-2(1H)-yl)-N-methyl-4-oxobutanamide]
523	CNC(=O)CCCC(=O)N1CCc2cccc(O[C@H]3CCN(C(=O)c4cncs4)C3)c2[C@H]1CN1C(=O)c2ccccc2C1=O [Example 40, 5-((S)-1-((1,3-dioxoisoindolin-2-yl)methyl)-8-(((S)-1-(thiazole-5-carbonyl)pyrrolidin-3-yl)oxy)-3,4-dihydroisoquinolin-2(1H)-yl)-N-methyl-5-oxopentanamide]
539	O=C(NCC(F)F)[C@H]1CCCC[C@H]1C(=O)N1CCc2cccc(O[C@H]3CCN(C(=O)c4cncs4)C3)c2[C@H]1CN1C(=O)c2ccccc2C1=O [Example 31, (1S,2R)-N-(2,2-difluoroethyl)-2-((S)-1-((1,3-dioxoisoindolin-2-yl)methyl)-8-(((S)-1-(thiazole-5-carbonyl)pyrrolidin-3-yl)oxy)-1,2,3,4-tetrahydroisoquinoline-2-carbonyl)cyclohexane-1-carboxamide]
8200	CNC(=O)[C@H]1CCCC[C@H]1C(=O)N1CCc2cccc(O[C@H]3CCN(C(=O)c4cncs4)C3)c2[C@H]1CNC(=O)C1CC1 [Example 38, (1S,2R)-2-((S)-1-(cyclopropanecarboxamidomethyl)-8-(((S)-1-(thiazole-5-carbonyl)pyrrolidin-3-yl)oxy)-1,2,3,4-tetrahydroisoquinoline-2-carbonyl)-N-methylcyclohexane-1-carboxamide]
565	CNC(=O)[C@H]1CCCC[C@H]1C(=O)N1CCc2cccc(OCc3cnccn3)c2[C@H]1CN1C(=O)c2ccccc2C1=O [Example 27, (1S,2R)-2-((S)-1-((1,3-dioxoisoindolin-2-yl)methyl)-8-(pyrazin-2-ylmethoxy)-1,2,3,4-tetrahydroisoquinoline-2-carbonyl)-N-methylcyclohexane-1-carboxamide]
166	CCCNC(=O)[C@H]1CCCC[C@H]1C(=O)N1CCc2cccc(O[C@H]3CCN(C(=O)c4cncs4)C3)c2[C@H]1CN1C(=O)c2ccccc2C1=O [Example 29, (1S,2R)-2-((S)-1-((1,3-dioxoisoindolin-2-yl)methyl)-8-(((S)-1-(thiazole-5-carbonyl)pyrrolidin-3-yl)oxy)-1,2,3,4-tetrahydroisoquinoline-2-carbonyl)-N-propylcyclohexane-1-carboxamide]
606	CNC(=O)[C@H]1CCCC[C@H]1C(=O)N1CCc2cccc(O[C@H]3CCN(C(=O)c4sc(C)nc4C)C3)c2[C@H]1CN1C(=O)c2ccccc2C1=O [Example 23, (1S,2R)-2-((S)-8-(((S)-1-(2,4-dimethylthiazole-5-carbonyl)pyrrolidin-3-yl)oxy)-1-((1,3-dioxoisoindolin-2-yl)methyl)-1,2,3,4-tetrahydroisoquinoline-2-carbonyl)-N-methylcyclohexane-1-carboxamide]
61	CNC(=O)[C@H]1CCCC[C@H]1C(=O)N1CCc2cccc(O[C@H]3CCN(C(=O)c4cncs4)C3)c2[C@H]1CN1CCCC1=O [Example 26, (1S,2R)-N-methyl-2-((S)-1-((2-oxopyrrolidin-1-yl)methyl)-8-(((S)-1-(thiazole-5-carbonyl)pyrrolidin-3-yl)oxy)-1,2,3,4-tetrahydroisoquinoline-2-carbonyl)cyclohexane-1-carboxamide]
83	CNC(=O)[C@H]1CCCC[C@H]1C(=O)N1CCc2cccc(OCCCC(=O)O)c2[C@H]1CN1C(=O)c2ccccc2C1=O [Example 46, 4-(((S)-1-((1,3-dioxoisoindolin-2-yl)methyl)-24(1 R,2S)-2-(methylcarbamoyncyclohexane-1-carbonyl)-1,2,3,4-tetrahydroisoquinolin-8-yl)oxy)butanoic acid]
147	CNC(=O)[C@H]1CCCC[C@H]1C(=O)N1CCc2cccc(O[C@H]3CCN(C(C)=O)C3)c2[C@H]1CN1C(=O)c2ccccc2C1=O [Example 5, (1S,2R)-2-((S)-8-(((S)-1-acetylpyrrolidin-3-yl)oxy)-1-((1,3-dioxoisoindolin-2-yl)methyl)-1,2,3,4-tetrahydroisoquinoline-2-carbonyl)-N-methylcyclohexane-1-carboxamide]
2100	O=C(NCC(F)(F)F)[C@H]1CCCC[C@H]1C(=O)N1CCc2cccc(O[C@H]3CCN(C(=O)c4cncs4)C3)c2[C@H]1CN1C(=O)c2ccccc2C1=O [Example 32, (1S,2R)-2-((S)-1-((1,3-dioxoisoindolin-2-yl)methyl)-8-(((S)-1-(thiazole-5-carbonyl)pyrrolidin-3-yl)oxy)-1,2,3,4-tetrahydroisoquinoline-2-carbonyl)-N-(2,2,2-trifluoroethyl)cyclohexane-1-carboxamide]
32	CNC(=O)[C@H]1CCCC[C@H]1C(=O)N1CCc2cccc(O[C@H]3CCN(C(=O)c4cnc(C)s4)C3)c2[C@H]1CN1C(=O)c2ccccc2C1=O [Example 22, (1S,2R)-2-((S)-1-((1,3-dioxoisoindolin-2-yl)methyl)-8-(((S)-1-(2-methylthiazole-5-carbonyl)pyrrolidin-3-yl)oxy)-1,2,3,4-tetrahydroisoquinoline-2-carbonyl)-N-methylcyclohexane-1-carboxamide]
310	CNC(=O)[C@H]1CCCC[C@H]1C(=O)N1CCc2cccc(O[C@H]3CCN(C(=O)c4cncs4)C3)c2[C@H]1CN1CCOC1=O [Example 45, (1S,2R)-N-methyl-2-((S)-1-((2-oxooxazolidin-3-yl)methyl)-8-(((S)-1-(thiazole-5-carbonyl)pyrrolidin-3-yl)oxy)-1,2,3,4-tetrahydroisoquinoline-2-carbonyl)cyclohexane-1-carboxamide]
44	CNC(=O)[C@H]1CCCC[C@H]1C(=O)N1CCc2c(Cl)ccc(O[C@H]3CCN(C(C)=O)C3)c2[C@H]1CN1C(=O)c2ccccc2C1=O [Example 37, (1S,2R)-2-((S)-8-(((S)-1-acetylpyrrolidin-3-yl)oxy)-5-chloro-1-((1,3-dioxoisoindolin-2-yl)methyl)-1,2,3,4-tetrahydroisoquinoline-2-carbonyl)-N-methylcyclohexane-1-carboxamide]
72	CNC(=O)[C@H]1CCCC[C@H]1C(=O)N1CCc2c(Br)ccc(O[C@H]3CCN(C(C)=O)C3)c2[C@H]1CN1C(=O)c2ccccc2C1=O [Example 50, (1S,2R)-2-((S)-8-(((S)-1-acetylpyrrolidin-3-yl)oxy)-5-bromo-1-((1,3-dioxoisoindolin-2-yl)methyl)-1,2,3,4-tetrahydroisoquinoline-2-carbonyl)-N-methylcyclohexane-1-carboxamide]
366	CNC(=O)[C@H]1CCCC[C@H]1C(=O)N1CCc2cccc(O[C@H]3CCN(S(=O)(=O)c4cnoc4C)C3)c2[C@H]1CN1C(=O)c2ccccc2C1=O [Example 16, (1S,2R)-2-((S)-1-((1,3-dioxoisoindolin-2-yl)methyl)-8-(((S)-1-((5-methylisoxazol-4-yl)sulfonyl)pyrrolidin-3-yl)oxy)-1,2,3,4-tetrahydroisoquinoline-2-carbonyl)-N-methylcyclohexane-1-carboxamide]
2250	CNC(=O)[C@H]1CCCC[C@H]1C(=O)N1CCc2cccc(OCc3cnco3)c2[C@H]1CN1C(=O)c2ccccc2C1=O [Example 21, (1S,2R)-2-((S)-1-((1,3-dioxoisoindolin-2-yl)methyl)-8-(oxazol-5-ylmethoxy)-1,2,3,4-tetrahydroisoquinoline-2-carbonyl)-N-methylcyclohexane-1-carboxamide]
